Laboratory results: patent US11999732B2, “P2X3 receptor antagonists” (RECORDATI INDUSTRIA CHIMICA E FARMACEUTICA SPA, priority 2018, dated 2024)

Target: T1, human P2X3 receptor (Homo sapiens, UniProt P56373)
T1 construct: expressed in transfected cells; host or cells: CHO-K1
T1 sequence (P56373 1-397): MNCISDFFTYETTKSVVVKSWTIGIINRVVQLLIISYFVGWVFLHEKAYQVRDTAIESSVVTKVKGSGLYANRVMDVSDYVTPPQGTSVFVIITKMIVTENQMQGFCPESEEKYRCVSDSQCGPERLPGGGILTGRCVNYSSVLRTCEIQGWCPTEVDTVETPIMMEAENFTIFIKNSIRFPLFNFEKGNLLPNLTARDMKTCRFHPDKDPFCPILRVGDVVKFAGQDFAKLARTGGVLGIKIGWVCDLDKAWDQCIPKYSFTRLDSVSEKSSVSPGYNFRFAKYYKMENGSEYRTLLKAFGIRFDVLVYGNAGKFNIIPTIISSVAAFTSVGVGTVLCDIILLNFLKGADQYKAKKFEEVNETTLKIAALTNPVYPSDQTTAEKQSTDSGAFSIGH
Experiment: Calcium luminescence (photoprotein) assay in CHO-K1 cells co-expressing human P2X3 receptor, α,β-Met-ATP stimulation, FLEXSTATION readout
Assay type: cell-based
Settings: Table 6; human P2X3 receptor antagonist activity, CHO-K1 cells, α,β-Met-ATP; read-out: h-P2X3 IC50
Description: The assay for the human purinergic P2X3 receptor has been adapted to the internal screening instrumentation using the FLEXSTATION as reader and a photoprotein as luminescent readout. The assay consists of CHO-K1 cells recombinantly co-expressing the human P2rx3 receptor and a Ca^2+ sensitive photoprotein. Cells are maintained in DMEM F-12 (1:1) mixture (LONZA cat. no BE04-687F/U1) supplemented with 9 mL of 100 mM Sodium Pyruvate (LONZA cat. no BE13-115E), 29 mL of 7.5% Sodium Bicarbonate (LONZA cat. no: BE17-613E), 5.5 mL of 1 M Hepes (LONZA cat. no BE17-737E), 5 mL of 100× Penicillin/Streptomycin (LONZA cat. no DE17-602E) and 50 mL of Fetal Bovine Serum (Sigma cat. no F7524), 1 mg/mL G418 (Sigma cat. no G8168) and 5 µg/ml puromycin (Sigma cat. no P9620). Standard propagation conditions consist of seeding in a P75 flask twice a week, recovering about 20×10^6 cells, corresponding to about 80% confluency. Cells were seeded into black-walled clear bottom 96 well plates at a density of 40000 cells/well in a Tyrode's buffer (Standard Tyrode's buffer: in house solution, 130 mM NaCl, 5 mM KCl, 2 mM CaCl2, 5 mM NaHCO3, 1 mM MgCl2, 20 mM HEPES, pH 7.4). After 24 h the culture medium was replaced with 200 μL/well of coelenterazine in Tyrode's buffer (Coelenterazine: from BIOSYNTH (cat. no C-7001). 10 mM stock solution was prepared in DMSO and glutathione and stored at −20° C.). The plates were incubated for 4 hours at 37° C., and injected with 10 μL/well of test compounds at 25× concentration in Tyrode's buffer. After 4 minutes a second injection of 50 μL/well of 5× α,β-Met-ATP in Tyrode's buffer (α,β-Met-ATP: from Tocris (cat. no 3209), was dissolved at 100 mM in water and stored in aliquots at −20° C.) was performed and the signal of the emitted luminescence was recorded by FLEXSTATION III (Molecular Devices).
The inhibition curves of the tested compounds at cloned P2X3 receptor were determined by nonlinear regression analysis using software Prism 4.0 (Graphpad, San Diego, Calif.). The IC50 values and pseudo-Hill slope coefficients were estimated by the program.

Going from `COc1ccc(CN2C(=O)N3CC(C(C)(C)C)N=C3c3ncc(N4CCOCC4)cc32)cc1` (stereo not shown) [Example 32, 2-tert-butyl-6-(4-methoxybenzyl)-8-(morpholin-4-yl)-2,6-dihydroimidazo[1,2-c]pyrido[2,3-e]pyrimidin-5(3H)-one] to `COc1ccc(CN2C(=O)N3CC(CC(C)(C)C)N=C3c3ncc(N4CCOCC4)cc32)cc1` (stereo not shown) [Example 34, 2-(2,2-dimethylpropyl)-6-(4-methoxybenzyl)-8-(morpholin-4-y1)-2,6-dihydroimidazo[1,2-c]pyrido[2,3-e]pyrimidin-5(3H)-one], the IC50 rises from 124 nM to 408 nM (3.3-fold). The first is the more potent here.

Compared with `COc1ccc(CN2C(=O)N3CC(C4CCC4)N=C3c3ncc(N4CCOCC4)cc32)cc1` (stereo not shown) [Example 33, 2-cyclobutyl-6-(4-methoxybenzyl)-8-(morpholin-4-yl)-2,6-dihydroimidazo[1,2-c]pyrido[2,3-e]pyrimidin-5(3H)-one], `CCC1CN2C(=O)N(Cc3ccc(OC)cc3)c3cc(N4CCOCC4)cnc3C2=N1` (stereo not shown) [Example 52, 2-ethyl-6-(4-methoxybenzyl)-8-(morpholin-4-y1)-2,6-dihydroimidazo[1,2-c]pyrido[2,3-e]pyrimidin-5(3H)-one] is 5.7-fold higher in IC50: 219 nM for the first, 1250 nM for the second.

Compared with `COc1cc(CN2C(=O)N3C(=NCC3CC(C)C)c3ncc(N4CCOCC4)cc32)cc(OC)c1` (stereo not shown) [Example 35, 6-(3,5-dimethoxybenzyl)-3-(2-methylpropyl)-8-(morpholin-4-yl)-2,6-dihydroimidazo[1,2-c]pyrido[2,3-e]pyrimidin-5(3H)-one], `COc1ccc(CN2C(=O)N3C(=NCC3CC(C)C)c3ncc(N4CCOCC4)cc32)cc1` (stereo not shown) [Example 38, 6-(4-methoxybenzyl)-3-(2-methylpropyl)-8-(morpholin-4-yl)-2,6-dihydroimidazo[1,2-c]pyrido[2,3-e]pyrimidin-5(3H)-one] is 2.6-fold higher in IC50: 793 nM for the first, 2040 nM for the second. The first is the more potent here.

`O=C1N2CC(c3ccccc3)N=C2c2ncc(N3CCOCC3)cc2N1Cc1ccc(Cl)cc1` (stereo not shown) [Example 36, 6-(4-chlorobenzyl)-8-(morpholin-4-y1)-2-phenyl-2,6-dihydroimidazo[1,2-c]pyrido[2,3-e]pyrimidin-5(3H)-one] and `O=C1N(Cc2ccc(Cl)cc2)c2cc(N3CCOCC3)cnc2C2=NCC(c3ccccc3)N12` (stereo not shown) [Example 45, 6-(4-chlorobenzyl)-8-(morpholin-4-y1)-3-phenyl-2,6-dihydroimidazo[1,2-c]pyrido[2,3-e]pyrimidin-5(3H)-one] are within 1.5-fold of each other in IC50: 245 nM for the first, 200 nM for the second.

Compared with `COc1ccc(CN2C(=O)N3CC(CC(C)C)N=C3c3ncc(N4CCOCC4)cc32)cc1` (stereo not shown) [Example 37, 6-(4-methoxybenzyl)-2-(2-methylpropyl)-8-(morpholin-4-yl)-2,6-dihydroimidazo[1,2-c]pyrido[2,3-e]pyrimidin-5(3H)-one], `COc1ccc(CN2C(=O)N3CC(COC(C)(C)C)N=C3c3ncc(N4CCOCC4)cc32)cc1` (stereo not shown) [Example 57, 2-(tert-butoxymethyl)-6-(4-methoxybenzyl)-8-(morpholin-4-yl)-2,6-dihydroimidazo[1,2-c]pyrido[2,3-e]pyrimidin-5(3H)-one] is 4.8-fold higher in IC50: 678 nM for the first, 3280 nM for the second.

Compared with `CCC1CN2C(=O)N(Cc3ccc(OC)cc3)c3cc(N4CC(COC)C4)cnc3C2=N1` (stereo not shown) [Example 39, 2-ethyl-6-(4-methoxybenzyl)-8-[3-(methoxymethyl)azetidin-1-yl]-2,6-dihydroimidazo[1,2-c]pyrido[2,3-e]pyrimidin-5(3H)-one], `COc1ccc(CN2C(=O)N3CC(CC(F)(F)F)N=C3c3ncc(N4CCOCC4)cc32)cc1` (stereo not shown) [Example 56, 6-(4-methoxybenzyl)-8-(morpholin-4-y1)-2-(2,2,2-trifluoroethyl)-2,6-dihydroimidazo[1,2-c]pyrido[2,3-e]pyrimidin-5(3H)-one] is 15-fold lower in IC50: 5140 nM for the first, 345 nM for the second.

Compared with `O=C1N2CC3(CCOCC3)N=C2c2ncc(N3CCOCC3)cc2N1Cc1ccc(Cl)cc1` [Example 40, 6-(4-chlorobenzyl)-8-(morpholin-4-yl)-2′,3′,5′,6′-tetrahydrospiro[imidazo[1,2-c]pyrido[2,3-e]pyrimidine-2,4′-pyran]-5(6H)-one], `O=C1N(Cc2ccc(Cl)cc2)c2cc(N3CCOCC3)cnc2C2=NCC3(CCOCC3)N12` [Example 41, 6-(4-chlorobenzyl)-8-(morpholin-4-yl)-2,2′,3′,5′,6,6′-hexahydro-5h-spiro[imidazo[1,2-c]pyrido[2,3-e]pyrimidine-3,4′-pyran]-5-one] is 3.2-fold higher in IC50: 1050 nM for the first, 3320 nM for the second. The first is the more potent here.

First: COc1cc(CN2C(=O)N3CC(C(C)C)N=C3c3ncc(N4CCC(N)CC4)cc32)cc(OC)c1 (stereo not shown) [Example 42, 8-(4-aminopiperidin-1-yl)-6-(3,5-dimethoxybenzyl)-2-(propan-2-yl)-2,6-dihydroimidazo[1,2-c]pyrido[2,3-e]pyrimidin-5(3H)-one]
Second: COc1cc(CN2C(=O)N3CC(C(C)C)N=C3c3ncc(NC4CCOCC4)cc32)cc(OC)c1 (stereo not shown) [Example 49, 6-(3,5-dimethoxybenzyl)-2-(propan-2-yl)-8-(tetrahydro-2H-pyran-4-ylamino)-2,6-dihydroimidazo[1,2-c]pyrido[2,3-e]pyrimidin-5(3H)-one]
The IC50 of the first is 4.6-fold lower: 189 nM for the first, 872 nM for the second. The first is the more potent here.

First: COc1cc(CN2C(=O)N3CC(C4CCCCC4)N=C3c3ncc(N4CCOCC4)cc32)cc(OC)c1 (stereo not shown) [Example 43, 2-cyclohexyl-6-(3,5-dimethoxybenzyl)-8-(morpholin-4-yl)-2,6-dihydroimidazo[1,2-c]pyrido[2,3-e]pyrimidin-5(3H)-one]
Second: COc1cc(CN2C(=O)N3C(=NCC3C3CCCCC3)c3ncc(N4CCOCC4)cc32)cc(OC)c1 (stereo not shown) [Example 44, 3-cyclohexyl-6-(3,5-dimethoxybenzyl)-8-(morpholin-4-yl)-2,6-dihydroimidazo[1,2-c]pyrido[2,3-e]pyrimidin-5(3H)-one]
The IC50 of the first is 4.4-fold lower: 112 nM for the first, 491 nM for the second.

Compared with `COc1cc(CN2C(=O)N3CC(c4ccccc4)N=C3c3ncc(N4CCOCC4)cc32)cc(OC)c1` (stereo not shown) [Example 46, 6-(3,5-dimethoxybenzyl)-8-(morpholin-4-yl)-2-phenyl-2,6-dihydroimidazo[1,2-c]pyrido[2,3-e]pyrimidin-5(3H)-one], `COc1cc(CN2C(=O)N3C(=NCC3c3ccccc3)c3ncc(N4CCOCC4)cc32)cc(OC)c1` (stereo not shown) [Example 47, 6-(3,5-dimethoxybenzyl)-8-(morpholin-4-yl)-3-phenyl-2,6-dihydroimidazo[1,2-c]pyrido[2,3-e]pyrimidin-5(3H)-one] is 1.6-fold higher in IC50: 127 nM for the first, 199 nM for the second. The first is the more potent here.

Going from `CCC1CN2C(=O)N(Cc3ccc(Cl)cc3)c3cc(N4CCOCC4)cnc3C2=N1` (stereo not shown) [Example 50, 6-(4-chlorobenzyl)-2-ethyl-8-(morpholin-4-y1)-2,6-dihydroimidazo[1,2-c]pyrido[2,3-e]pyrimidin-5(3H)-one] to `O=C(C1CN2C(=O)N(Cc3ccc(Cl)cc3)c3cc(N4CCOCC4)cnc3C2=N1)N1CCOCC1` (stereo not shown) [Example 54, 6-(4-chlorobenzyl)-8-(morpholin-4-yl)-2-(morpholin-4-ylcarbonyl)-2,6-dihydroimidazo[1,2-c]pyrido[2,3-e]pyrimidin-5(3H)-one], the IC50 rises from 280 nM to 1700 nM (6.1-fold). The first is the more potent here.

Compared with `CC(C)C1CN2C(=O)N(Cc3ccc(Cl)cc3)c3cc(N4CCC(O)CC4)cnc3C2=N1` (stereo not shown) [Example 51, 6-(4-chlorobenzyl)-8-(4-hydroxypiperidin-1-yl)-2-(propan-2-yl)-2,6-dihydroimidazo[1,2-c]pyrido[2,3-e]pyrimidin-5(3H)-one], `CCC1CN=C2c3ncc(N4CCOCC4)cc3N(Cc3ccc(OC)cc3)C(=O)N21` (stereo not shown) [Example 53, 3-ethyl-6-(4-methoxybenzyl)-8-(morpholin-4-y1)-2,6-dihydroimidazo[1,2-c]pyrido[2,3-e]pyrimidin-5(3H)-one] is 2.8-fold higher in IC50: 731 nM for the first, 2070 nM for the second.

Work on `O=C(C1CN=C2c3ncc(N4CCOCC4)cc3N(Cc3ccc(Cl)cc3)C(=O)N21)N1CCOCC1` (stereo not shown) [Example 55, 6-(4-chlorobenzyl)-8-(morpholin-4-y1)-3-(morpholin-4-ylcarbonyl)-2,6-dihydroimidazo[1,2-c]pyrido[2,3-e]pyrimidin-5(3H)-one] yielded an IC50 of 2440 nM.
